Results taken from patent US20090203792A1, “METHODS OF TREATING NON-PAINFUL BLADDER DISORDERS USING ALPHA2DELTA SUBUNIT CALCIUM CHANNEL MODULATORS” (priority 2002, published 2009).
Entries after “also recorded” stand apart in the source; their conditions may differ.

What was measured:
[1] = test system: calcium currents of bladder afferent (DRG) neurons; experiment: Bladder sensory neuron calcium current model (whole cell patch-clamp); assay type: cell-based, rat
Text: Labeling of bladder afferent neurons: Adult female Sprague-Dawley rats (150-300 g) were deeply anesthetized with isoflurane. A ventral midline incision was made through the abdominal skin and musculature, exposing the urinary bladder. Five injections of the fluorescent dye Fast Blue (4%) were made into the bladder smooth muscle wall to label primary afferent fibers innervating the bladder. The area was rinsed with sterile saline to eliminate nonspecific spread of dye, and the incision was closed. Rats recovered for 12-14 days to allow for transport of Fast Blue from distal terminals to the cell somata of dorsal root ganglion (DRG) neurons. Labeled neurons were identified in vitro using fluorescence optics. […]
Neurons were incubated in culture medium containing the FITC-labeled lectin BSI-B4 (IB4, […]) at 37° C. for 5 min before recording. The coverslip was washed with extracellular recording solution for 1 min before being placed in a recording chamber mounted on the stage of an inverted microscope equipped with fluorescence optics. […]
Calcium currents were recorded from DRG neurons using standard electrophysiologic protocols. […] Currents were recorded using a patch-clamp amplifier and digitized at 3-10 kHz for acquisition. […] Baseline responses were recorded until a steady-state peak amplitude was obtained, and to ensure that the kinetics of the response were stable. […]

[2] = test system: rat bladder irritated by intravesical dilute acetic acid; experiment: Dilute acetic acid model of bladder overactivity, filling cystometry; assay type: in vivo; conditions: for bladder capacity normalized to pre-irritation saline control values (reversal of acetic acid-induced reduction) / bladder capacity during continuous intravesical dilute acetic acid infusion: rats; for bladder capacity normalized to pre-irritation saline control values (reversal of acetic acid-induced reduction): intravenous cumulative doses: gabapentin 30-300 mg/kg n=11, pregabalin 10-100 mg/kg n=7; for bladder capacity during continuous intravesical dilute acetic acid infusion: intravenous increasing doses (gabapentin 30-300 mg/kg, p=0.0031 by Friedman test; pregabalin 10-100 mg/kg)
Text: Animal Preparation Female rats (250-275 g BW) were anesthetized with urethane (1.2 g/kg) and a saline-filled catheter (PE-50) was inserted into the jugular vein for intravenous drug administration. Via a midline lower abdominal incision, a flared-tipped PE 50 catheter was inserted into the bladder dome for bladder filling and pressure recording and secured by ligation. The abdominal cavity was moistened with saline and closed by covering with a thin plastic sheet in order to maintain access to the bladder for emptying purposes. Fine silver or stainless steel wire electrodes were inserted into the external urethral sphincter (EUS) percutaneously for electromyography (EMG).
Experimental Design: Saline was continuously infused at a rate of 0.055 ml/min via the bladder filling catheter for 60 minutes to obtain a baseline of lower urinary tract activity (continuous cystometry; CMG). Following the control period, a 0.25% acetic acid solution in saline was infused into the bladder at the same flow rate to induce bladder irritation. Following 30 minutes of AA infusion, 3 vehicle injections were made at 20 minute intervals to determine vehicle effects, if any. Increasing doses of a selected active agent, gabapentin (30, 100 and 300 mg/kg; n=11) or pregabalin (10, 30 and 100 mg/kg; n=7), at half log increments were administered intravenously at 30 minute intervals in order to construct a cumulative dose-response relationship. At the end of the control saline cystometry period, at the third vehicle, and 20 minutes following each subsequent treatment, the infusion pump was stopped, the bladder was emptied via the infusion catheter and a single filling cystometrogram was performed at the same flow rate in order to determine changes in bladder capacity caused by the irritation protocol and subsequent […] drug administration. Body temperature was maintained at 37 C with a heating pad.
Bladder capacity was estimated by single filling cystometry. Data were analyzed by non-parametric ANOVA for repeated measures (Friedman Test) for cumulative dose-response studies and Dunn's Multiple Comparison post-test. In some cases, comparisons were made from the last vehicle measurement (AA/Veh 3). P<0.050 was considered significant.

[3] = test system: rat bladder irritated by intravesical protamine sulfate/KCl; experiment: Urothelial permeation/physiological potassium model (protamine sulfate/KCl bladder irritation), filling cystometry; assay type: in vivo
Text: Female rats (250-275 g BW) are anesthetized with urethane (1.2 g/kg) and a saline-filled jugular catheter (PE-50) is inserted for intravenous drug administration. Via a midline abdominal incision, a PE 50 catheter is inserted into the bladder dome for bladder filling and pressure recording. The abdominal cavity is moistened with saline and closed by covering with a thin plastic sheet in order to maintain access to the bladder for filling cystometry emptying purposes. Fine silver or stainless steel wire electrodes are inserted into the external urethral sphincter (EUS) percutaneously for electromyography (EMG).
Saline and all subsequent infusates are continuously infused at a rate of 0.055 ml/min via the bladder filling catheter for 30-60 minutes to obtain a baseline of lower urinary tract activity (continuous cystometry; CMG). Bladder pressure traces act as direct measures of bladder and urethral outlet activity, and EUS-EMG phasic firing and voiding act as indirect measures of lower urinary tract activity during continuous transvesical cystometry. […] Once a stable level of lower urinary tract hyperactivity is established (20-30 minutes), vehicle followed by increasing doses of a selected active agent are administered intravenously in order to construct a cumulative dose-response relationship and their effects on LUT function are monitored for 20 minutes. […]

[4] = test system: α2δ subunit of calcium channels; conditions: Bryans et al. (1999) Med. Res. Rev. 19: 149-177; cited from earlier work

SMILES	block of currents recorded from bladder afferent neurons ([1]; 0.1 mM, data not shown)	bladder capacity response compared with last vehicle measurement (AA/Veh 3) ([2]; rats n=5, 300 mg/kg intravenous, p<0.05 by Dunn's multiple comparison test)	bladder capacity normalized to pre-irritation saline control values (reversal of acetic acid-induced reduction) [2] [%]	bladder capacity during continuous intravesical dilute acetic acid infusion [2]	peak calcium current during drug application, relative to control ([1]; 30 μM bath application, six bladder afferent neurons, step from −80 mV to 0 mV, mean±SEM)	bladder capacity during continuous bladder irritation (protamine sulfate/KCl) ([3]; rats n=6, 30, 100 and 300 mg/kg intravenously, sequential at 30 minute intervals, p=0.0108 by Friedman test)	drug-induced changes in blood pressure ([3]; rats, intravenous, any dose examined)	binding affinity for the α2δ subunit of calcium channels compared with gabapentin [4]
[Cl][Cd][Cl] [CdCl2]	completely blocked	–	–	–	–	–	–	–
NCC1(CC(=O)O)CCCCC1 [gabapentin, 1-(aminomethyl)cyclohexaneacetic acid]	–	significantly higher than AA/Veh 3	~50	partially reversing the reduction in bladder capacity caused by acetic acid in a dose-dependent fashion; also recorded: dose-dependent increase in bladder capacity; also recorded: demonstrate efficacy	85+1%	reversed the irritation effect (decreased bladder capacity) in a dose-dependent fashion; also recorded: dose-dependent increase in bladder capacity	No drug-induced changes in blood pressure	–
CC(C)C[C@H](CN)CC(=O)O [Pregabalin, (S)-(3-aminomethyl)-5-methylhexanoic acid]	–	–	42	demonstrate efficacy	–	–	–	even higher binding affinity
